Here are results for 26 compounds from ChEMBL document CHEMBL2401689, “Design, synthesis and antibacterial activity studies of thiazole derivatives as potent ecKAS III inhibitors” (Bioorg Med Chem Lett, 2013).

As usually defined, the IC50 is the point on the concentration scale where inhibition reaches its midpoint. A lower IC50 goes with higher potency. A word on the MIC: it is the lowest concentration found to suppress growth. Low readings indicate a more susceptible organism, high ones a less susceptible organism.

Molecules are shown by their SMILES. ≈ marks a conversion by molar mass, not a printed value.

Data set [1] is described as follows: Hemolytic activity in RBC (uinknown origin). It is filed as cell-based. As to conditions: erythrocyte.
Data set [2] can be described thus: Displacement of [3H]acetyl-CoA from Escherichia coli full-length beta-ketoacyl-ACP synthase3 expressed in Escherichia coli BL21 (DE3) by liquid scintillation counting analysis. (In general: In a radioligand displacement assay an active substance lowers the binding of a labelled ligand.)
The next data set has as its system Staphylococcus aureus. As to the kind of experiment: Antibacterial activity against Staphylococcus aureus ATCC 6538 after 24 hrs by MTT assay. Type of data set: functional. Particulars: ATCC 6538, 24 h. (Formazan colour is commonly taken as a measure of viable cells.)
The next data set concerns Bacillus spizizenii. As to the kind of experiment: Antibacterial activity against Bacillus subtilis ATCC 6633 after 24 hrs by MTT assay. Type of data set: functional. Particulars: ATCC 6633, 24 h.
Another data set concerns Pseudomonas aeruginosa. The experiment in a line: Antibacterial activity against Pseudomonas aeruginosa ATCC 13525 after 24 hrs by MTT assay. Type of data set: functional. Particulars: ATCC 13525, 24 h.
In the next data set the test system is Escherichia coli. The experiment in a line: Antibacterial activity against Escherichia coli ATCC 35218 after 24 hrs by MTT assay. Particulars: ATCC 35218, 24 h. It is filed as functional.

As for `O=C(Cc1cccc(Br)c1)Nc1nc(-c2ccccc2)cs1`, the LC30 in data set [1] was more than 10000 µg/mL. In data set [2], this compound came in with an IC50 of 26.9 µM. Further, the MIC with Staphylococcus aureus amounted to 3.13 µg/mL (≈ 8.39 µM); in the data set on Bacillus spizizenii, 6.25 µg/mL (≈ 16.7 µM); against Pseudomonas aeruginosa, 12.5 µg/mL (≈ 33.5 µM); with Escherichia coli, 12.5 µg/mL (≈ 33.5 µM).

Consider `O=C(Nc1nc(-c2ccccc2)cs1)N1CCOCC1`, for which the MIC in the data set with Staphylococcus aureus, with Bacillus spizizenii, in the data set on Pseudomonas aeruginosa and with Escherichia coli was more than 100 µg/mL each time.

The compound `COc1cccc(CC(=O)Nc2nc(-c3ccc(Br)cc3)cs2)c1` returned an LC30 in data set [1] of more than 10000 µg/mL. For the same compound, in data set [2], the IC50 stood at 65.6 µM. In addition, the MIC was found to be 50 µg/mL (≈ 124 µM) in the data set with Staphylococcus aureus, 25 µg/mL (≈ 62 µM) with Bacillus spizizenii, 50 µg/mL (≈ 124 µM) with Pseudomonas aeruginosa and 25 µg/mL (≈ 62 µM) against Escherichia coli.

`O=C(Cc1ccc(Cl)cc1)Nc1nc(-c2ccccc2)cs1` came in with an LC30 in data set [1] of more than 10000 µg/mL. For the same compound, the IC50 in data set [2] came out at 41.8 µM. The MIC was 25 µg/mL (≈ 76 µM) in the data set with Staphylococcus aureus, 12.5 µg/mL (≈ 38 µM) in the data set with Bacillus spizizenii, 25 µg/mL (≈ 76 µM) in the data set with Pseudomonas aeruginosa and 25 µg/mL (≈ 76 µM) in the data set with Escherichia coli.

Compound `O=C(Cc1ccc(F)cc1)Nc1nc(-c2ccccc2)cs1` returned an LC30 in data set [1] of more than 10000 µg/mL. Further, the half-inhibitory concentration (IC50) in data set [2] came to 38.4 µM. The MIC against Staphylococcus aureus came out at 12.5 µg/mL (≈ 40 µM); in the data set with Bacillus spizizenii, 12.5 µg/mL (≈ 40 µM); with Pseudomonas aeruginosa, 25 µg/mL (≈ 80 µM); in the data set on Escherichia coli, 12.5 µg/mL (≈ 40 µM).

`O=C(Cc1cccc(Cl)c1)Nc1nc(-c2ccccc2)cs1`: the LC30 in data set [1] is more than 10000 µg/mL. For the same compound, in data set [2], the IC50 was found to be 12.3 µM. In addition, the minimum inhibitory concentration (MIC) against Staphylococcus aureus was found to be 6.25 µg/mL (≈ 19 µM); in the data set on Bacillus spizizenii, 12.5 µg/mL (≈ 38 µM); in the data set on Pseudomonas aeruginosa, 6.25 µg/mL (≈ 19 µM); in the data set on Escherichia coli it was 6.25 µg/mL (≈ 19 µM).

For `O=C(Cc1ccccc1)Nc1nc(-c2ccc(Br)cc2)cs1`, the MIC against Staphylococcus aureus turned out to be 25 µg/mL (≈ 67 µM); against Bacillus spizizenii it was 25 µg/mL (≈ 67 µM); in the data set on Pseudomonas aeruginosa, 50 µg/mL (≈ 134 µM); against Escherichia coli, 50 µg/mL (≈ 134 µM).

Turning to `O=C(Cc1ccc(Br)cc1)Nc1nc(-c2ccc(Br)cc2)cs1`, the LC30 in data set [1] is more than 10000 µg/mL. Besides, the IC50 in data set [2] stood at 48.1 µM. Further, the minimum inhibitory concentration (MIC) turned out to be 25 µg/mL (≈ 55.3 µM) in the data set on Staphylococcus aureus, 25 µg/mL (≈ 55.3 µM) against Bacillus spizizenii, 50 µg/mL (≈ 111 µM) in the data set with Pseudomonas aeruginosa and 25 µg/mL (≈ 55.3 µM) in the data set on Escherichia coli.

In the case of `O=C(Nc1nc(-c2ccc(Br)cc2)cs1)N1CCOCC1`, the MIC is more than 100 µg/mL in the data set on Staphylococcus aureus, 100 µg/mL (≈ 272 µM) in the data set on Bacillus spizizenii, more than 100 µg/mL in the data set with Pseudomonas aeruginosa and 50 µg/mL (≈ 136 µM) in the data set on Escherichia coli.

As to `O=C(Nc1nc(-c2ccc(Br)cc2)cs1)c1cccc2ccccc12`, the MIC is more than 100 µg/mL against Staphylococcus aureus, more than 100 µg/mL against Bacillus spizizenii, 100 µg/mL (≈ 244 µM) against Pseudomonas aeruginosa and 50 µg/mL (≈ 122 µM) with Escherichia coli.

With `O=C(Nc1nc(-c2ccc(Br)cc2)cs1)c1ccc2ccccc2c1`, the minimum inhibitory concentration (MIC) with Staphylococcus aureus, against Bacillus spizizenii, in the data set on Pseudomonas aeruginosa and with Escherichia coli was more than 100 µg/mL each time.

Regarding `CCOc1ccc(CC(=O)Nc2nc(-c3ccccc3)cs2)cc1OCC`, the MIC was more than 100 µg/mL against Staphylococcus aureus, more than 100 µg/mL against Bacillus spizizenii, 50 µg/mL (≈ 131 µM) against Pseudomonas aeruginosa and 50 µg/mL (≈ 131 µM) in the data set on Escherichia coli.

As to `O=C(Nc1nc(-c2ccccc2)cs1)c1cccc2ccccc12`, the MIC against Staphylococcus aureus, in the data set with Bacillus spizizenii, in the data set on Pseudomonas aeruginosa and in the data set with Escherichia coli was more than 100 µg/mL throughout.

`O=C(Nc1nc(-c2ccccc2)cs1)c1ccc2ccccc2c1`: the minimum inhibitory concentration (MIC) against Staphylococcus aureus was more than 100 µg/mL; against Bacillus spizizenii, 50 µg/mL (≈ 151 µM); in the data set with Pseudomonas aeruginosa, more than 100 µg/mL; with Escherichia coli, more than 100 µg/mL.

In turn, `O=C(Cc1ccc(Cl)cc1)Nc1nc(-c2ccc(Br)cc2)cs1` had an LC30 in data set [1] of more than 10000 µg/mL. Also, in data set [2], the IC50 is 34.7 µM. The MIC in the data set on Staphylococcus aureus was 12.5 µg/mL (≈ 30.7 µM); with Bacillus spizizenii it was 12.5 µg/mL (≈ 30.7 µM); with Pseudomonas aeruginosa, 25 µg/mL (≈ 61.3 µM); against Escherichia coli, 12.5 µg/mL (≈ 30.7 µM).

As to `COc1cccc(CC(=O)Nc2nc(-c3ccccc3)cs2)c1`, the MIC in the data set on Staphylococcus aureus was 50 µg/mL (≈ 154 µM); against Bacillus spizizenii it was 100 µg/mL (≈ 308 µM); in the data set with Pseudomonas aeruginosa, 50 µg/mL (≈ 154 µM); against Escherichia coli, 50 µg/mL (≈ 154 µM).

Consider `O=C(Cc1ccc(F)cc1)Nc1nc(-c2ccc(Br)cc2)cs1`, for which the LC30 in data set [1] was more than 10000 µg/mL. For the same compound, in data set [2], the IC50 came to 29.3 µM. In addition, the MIC in the data set with Staphylococcus aureus was 12.5 µg/mL (≈ 31.9 µM); in the data set on Bacillus spizizenii it was 6.25 µg/mL (≈ 16 µM); against Pseudomonas aeruginosa, 12.5 µg/mL (≈ 31.9 µM); in the data set on Escherichia coli, 12.5 µg/mL (≈ 31.9 µM).

For `O=C(Nc1nc(-c2ccc(Br)cc2)cs1)c1ccccc1`, the MIC in the data set on Staphylococcus aureus, against Bacillus spizizenii, in the data set with Pseudomonas aeruginosa and with Escherichia coli was more than 100 µg/mL in each case.

In data set [1], `O=C(Cc1cccc(Cl)c1)Nc1nc(-c2ccc(Br)cc2)cs1` displayed an LC30 of more than 10000 µg/mL. In addition, in data set [2], the IC50 is 5.3 µM. For the same compound, the MIC against Staphylococcus aureus came out at 3.13 µg/mL (≈ 7.68 µM); in the data set on Bacillus spizizenii, 6.25 µg/mL (≈ 15.3 µM); against Pseudomonas aeruginosa it was 3.13 µg/mL (≈ 7.68 µM); against Escherichia coli, 1.56 µg/mL (≈ 3.83 µM).

For `O=C(Nc1nc(-c2ccccc2)cs1)c1ccccc1`, the MIC against Staphylococcus aureus, against Bacillus spizizenii, against Pseudomonas aeruginosa and in the data set on Escherichia coli was more than 100 µg/mL throughout.

On to `O=C(Cc1ccc(Br)cc1)Nc1nc(-c2ccccc2)cs1`, for which the minimum inhibitory concentration (MIC) turned out to be 50 µg/mL (≈ 134 µM) with Staphylococcus aureus, 25 µg/mL (≈ 67 µM) in the data set with Bacillus spizizenii, 50 µg/mL (≈ 134 µM) with Pseudomonas aeruginosa and 50 µg/mL (≈ 134 µM) against Escherichia coli.

Turning to `O=C(Cc1ccccc1)Nc1nc(-c2ccccc2)cs1`, the MIC against Staphylococcus aureus was 25 µg/mL (≈ 84.9 µM); against Bacillus spizizenii it was 50 µg/mL (≈ 170 µM); in the data set on Pseudomonas aeruginosa, 100 µg/mL (≈ 340 µM); with Escherichia coli, 100 µg/mL (≈ 340 µM).

The compound `O=C(Cc1cccc(Br)c1)Nc1nc(-c2ccc(Br)cc2)cs1` yielded an LC30 in data set [1] of more than 10000 µg/mL. This compound registered a half-inhibitory concentration (IC50) in data set [2] of 9.8 µM. Besides, the MIC worked out at 6.25 µg/mL (≈ 13.8 µM) against Staphylococcus aureus, 6.25 µg/mL (≈ 13.8 µM) against Bacillus spizizenii, 12.5 µg/mL (≈ 27.6 µM) against Pseudomonas aeruginosa and 6.25 µg/mL (≈ 13.8 µM) in the data set with Escherichia coli.

Take `CC1(C)S[C@@H]2[C@H](NC(=O)Cc3ccccc3)C(=O)N2[C@H]1C(=O)O` [PENICILLIN G]: the MIC with Staphylococcus aureus was 6.25 µg/mL (≈ 18.7 µM); in the data set on Bacillus spizizenii, 1.56 µg/mL (≈ 4.67 µM); in the data set on Pseudomonas aeruginosa, 6.25 µg/mL (≈ 18.7 µM); in the data set with Escherichia coli, 3.13 µg/mL (≈ 9.36 µM).

`CCOc1ccc(CC(=O)Nc2nc(-c3ccc(Br)cc3)cs2)cc1OCC`: the MIC against Staphylococcus aureus was more than 100 µg/mL; with Bacillus spizizenii, 50 µg/mL (≈ 108 µM); against Pseudomonas aeruginosa it was 25 µg/mL (≈ 54.2 µM); against Escherichia coli, 50 µg/mL (≈ 108 µM).

As for `NC[C@H]1O[C@H](O[C@H]2[C@H](O)[C@@H](O[C@H]3O[C@H](CO)[C@@H](O)[C@H](N)[C@H]3O)[C@H](N)C[C@@H]2N)[C@H](N)[C@@H](O)[C@@H]1O` [BEKANAMYCIN], the minimal inhibitory concentration (MIC) in the data set on Staphylococcus aureus was found to be 3.13 µg/mL (≈ 6.47 µM); with Bacillus spizizenii, 0.39 µg/mL (≈ 0.807 µM); in the data set with Pseudomonas aeruginosa, 3.13 µg/mL (≈ 6.47 µM); in the data set with Escherichia coli, 1.56 µg/mL (≈ 3.23 µM).
